# Literature values as cited in patent publication US20180185375A1, “COMPOSITIONS AND METHODS FOR THE TREATMENT OF SUBSTANCE USE DISORDERS, ADDICTION, AND PSYCHIATRIC DISORDERS” (EMBERA NEUROTHERAPEUTICS, INC., priority 2015, published 2018).
# Experiments:
# adrenal gland = details: in vivo
# cortisol levels = details: healthy subjects
# [1] = test system: cocaine self-administration in rats
# [2] = 12.5 mg/kg metyrapone tested alone, rats
smiles,measurement,setting,value
Clc1ccc(C(c2ccccc2Cl)C(Cl)Cl)cc1 (stereo not drawn) [Mitotane],doses at which it is an adrenolytic agent,adrenal gland,greater than 4 g per day
CCOC(=O)c1cncn1[C@H](C)c1ccccc1 [etomidate],time after which infusion resulted in significant suppression of cortisol levels,cortisol levels,5 h
same,time of maximal effects on cortisol levels,cortisol levels; infusion,11 h
Cc1nnc2n1-c1ccc(Cl)cc1C(c1ccccc1)=NC2 [alprazolam],effect of the dose alone on cocaine self-administration,"[1]; alprazolam 1.0 mg/kg, ip, alone",ineffective
CC(C)(C(=O)c1cccnc1)c1cccnc1 [metyrapone],effect on cocaine-maintained responding,[1]; [2],no effect
same,effect on food-maintained responding,[1]; [2],no effect
